Test results published in PubChem BioAssay AID2060599 (Molecular Pharmacology Branch, DTP, NCI, 2025).

System: 817829-284-R-J1-PDC complex spheroids, viability
Test: Anticancer human tumor 817829-284-R-J1-PDC patient-derived colon adenocarcinoma cell line growth inhibition [CLK]
Settings: for IC50: curve of first compound; for viability, T/C: stronger effect = lower value
Outline: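 Multi-cell-type spheroids combined patient-derived tumor cells with HUVEC endothelial cells and human mesenchymal stem cells. Paired agents were dosed in half-log steps down from about clinical Cmax, or from 10 microM where Cmax was unknown.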
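Also: spheroids exposed to the agents for seven days before readout.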

## C=CC(=O)Nc1cc(Nc2nccc(-c3cn(C)c4ccccc34)n2)c(OC)cc1N(C)CCN(C)C + CN1CCN(c2cc(C(=O)Nc3cc4cc(-c5cnn(C)c5)ccc4cn3)ccn2)CC1
Second compound 0.0316 µM
  IC50: > 300 nM
Second compound 0.1 µM
  IC50: < 0.949 nM
Second compound 0.316 µM
  IC50: < 0.949 nM
Second compound 1 µM
  IC50: < 0.949 nM
Second compound 3.16 µM
  IC50: < 0.949 nM
Second compound 10 µM
  IC50: < 0.949 nM
Second compound 0.0316 µM, first compound 0.000949 µM
  viability, T/C: 51.7%
Second compound 0.0316 µM, first compound 0.003 µM
  viability, T/C: 48.2%
Second compound 0.0316 µM, first compound 0.00949 µM
  viability, T/C: 57.6%
Second compound 0.0316 µM, first compound 0.03 µM
  viability, T/C: 58.5%
Second compound 0.0316 µM, first compound 0.0949 µM
  viability, T/C: 67.9%
Second compound 0.0316 µM, first compound 0.3 µM
  viability, T/C: 41.1%
Second compound 0.1 µM, first compound 0.000949 µM
  viability, T/C: 16.4%
Second compound 0.1 µM, first compound 0.003 µM
  viability, T/C: 17.8%
Second compound 0.1 µM, first compound 0.00949 µM
  viability, T/C: 16.3%
Second compound 0.1 µM, first compound 0.03 µM
  viability, T/C: 19.6%
Second compound 0.1 µM, first compound 0.0949 µM
  viability, T/C: 14.4%
Second compound 0.1 µM, first compound 0.3 µM
  viability, T/C: 10.9%
Second compound 0.316 µM, first compound 0.000949 µM
  viability, T/C: 1.39%
Second compound 0.316 µM, first compound 0.003 µM
  viability, T/C: 1.52%
Second compound 0.316 µM, first compound 0.00949 µM
  viability, T/C: 1.82%
Second compound 0.316 µM, first compound 0.03 µM
  viability, T/C: 1.58%
Second compound 0.316 µM, first compound 0.0949 µM
  viability, T/C: 1.13%
Second compound 0.316 µM, first compound 0.3 µM
  viability, T/C: 0.72%
Second compound 1 µM, first compound 0.000949 µM
  viability, T/C: 0.08%
Second compound 1 µM, first compound 0.003 µM
  viability, T/C: 0.12%
Second compound 1 µM, first compound 0.00949 µM
  viability, T/C: 0.1%
Second compound 1 µM, first compound 0.03 µM
  viability, T/C: 0.09%
Second compound 1 µM, first compound 0.0949 µM
  viability, T/C: 0.17%
Second compound 1 µM, first compound 0.3 µM
  viability, T/C: 0.09%
Second compound 3.16 µM, first compound 0.000949 µM
  viability, T/C: 0.14%
Second compound 3.16 µM, first compound 0.003 µM
  viability, T/C: 0.16%
Second compound 3.16 µM, first compound 0.00949 µM
  viability, T/C: 0.18%
Second compound 3.16 µM, first compound 0.03 µM
  viability, T/C: 0.12%
Second compound 3.16 µM, first compound 0.0949 µM
  viability, T/C: 0.1%
Second compound 3.16 µM, first compound 0.3 µM
  viability, T/C: 0.1%
Second compound 10 µM, first compound 0.000949 µM
  viability, T/C: 0.14%
Second compound 10 µM, first compound 0.003 µM
  viability, T/C: 0.13%
Second compound 10 µM, first compound 0.00949 µM
  viability, T/C: 0.13%
Second compound 10 µM, first compound 0.03 µM
  viability, T/C: 0.13%
Second compound 10 µM, first compound 0.0949 µM
  viability, T/C: 0.15%
Second compound 10 µM, first compound 0.3 µM
  viability, T/C: 0.13%

## CC1(C)CCC(CN2CCN(c3ccc(C(=O)NS(=O)(=O)c4ccc(NCC5CCOCC5)c([N+](=O)[O-])c4)c(Oc4cnc5[nH]ccc5c4)c3)CC2)=C(c2ccc(Cl)cc2)C1 + CN1CCN(c2cc(C(=O)Nc3cc4cc(-c5cnn(C)c5)ccc4cn3)ccn2)CC1
Second compound 0.0316 µM
  IC50: 4030 nM
Second compound 0.1 µM
  IC50: < 31.6 nM
Second compound 0.316 µM
  IC50: < 31.6 nM
Second compound 1 µM
  IC50: < 31.6 nM
Second compound 3.16 µM
  IC50: < 31.6 nM
Second compound 10 µM
  IC50: < 31.6 nM
Second compound 0.0316 µM, first compound 0.0316 µM
  viability, T/C: 92.8%
Second compound 0.0316 µM, first compound 0.1 µM
  viability, T/C: 64.9%
Second compound 0.0316 µM, first compound 0.316 µM
  viability, T/C: 46.8%
Second compound 0.0316 µM, first compound 1 µM
  viability, T/C: 80.8%
Second compound 0.0316 µM, first compound 3.16 µM
  viability, T/C: 63.2%
Second compound 0.0316 µM, first compound 10 µM
  viability, T/C: 1.02%
Second compound 0.1 µM, first compound 0.0316 µM
  viability, T/C: 18%
Second compound 0.1 µM, first compound 0.1 µM
  viability, T/C: 19.6%
Second compound 0.1 µM, first compound 0.316 µM
  viability, T/C: 16.1%
Second compound 0.1 µM, first compound 1 µM
  viability, T/C: 18.4%
Second compound 0.1 µM, first compound 3.16 µM
  viability, T/C: 20%
Second compound 0.1 µM, first compound 10 µM
  viability, T/C: 0.96%
Second compound 0.316 µM, first compound 0.0316 µM
  viability, T/C: 1.84%
Second compound 0.316 µM, first compound 0.1 µM
  viability, T/C: 1.97%
Second compound 0.316 µM, first compound 0.316 µM
  viability, T/C: 1.65%
Second compound 0.316 µM, first compound 1 µM
  viability, T/C: 2.48%
Second compound 0.316 µM, first compound 3.16 µM
  viability, T/C: 1.41%
Second compound 0.316 µM, first compound 10 µM
  viability, T/C: 0.06%
Second compound 1 µM, first compound 0.0316 µM
  viability, T/C: 0.11%
Second compound 1 µM, first compound 0.1 µM
  viability, T/C: 0.09%
Second compound 1 µM, first compound 0.316 µM
  viability, T/C: 0.08%
Second compound 1 µM, first compound 1 µM
  viability, T/C: 0.09%
Second compound 1 µM, first compound 3.16 µM
  viability, T/C: 0.09%
Second compound 1 µM, first compound 10 µM
  viability, T/C: 0.06%
Second compound 3.16 µM, first compound 0.0316 µM
  viability, T/C: 0.12%
Second compound 3.16 µM, first compound 0.1 µM
  viability, T/C: 0.12%
Second compound 3.16 µM, first compound 0.316 µM
  viability, T/C: 0.12%
Second compound 3.16 µM, first compound 1 µM
  viability, T/C: 0.11%
Second compound 3.16 µM, first compound 3.16 µM
  viability, T/C: 0.13%
Second compound 3.16 µM, first compound 10 µM
  viability, T/C: 0.07%
Second compound 10 µM, first compound 0.0316 µM
  viability, T/C: 0.06%
Second compound 10 µM, first compound 0.1 µM
  viability, T/C: 0.07%
Second compound 10 µM, first compound 0.316 µM
  viability, T/C: 0.09%
Second compound 10 µM, first compound 1 µM
  viability, T/C: 0.09%
Second compound 10 µM, first compound 3.16 µM
  viability, T/C: 0.17%
Second compound 10 µM, first compound 10 µM
  viability, T/C: 0.1%
